Data as given in patent publication US8183238B2, “Bicyclic and tricyclic compounds as KAT II inhibitors” (priority 2009, dated 2012).

How the values were obtained:
[1] = Prodrug in vivo pharmacokinetics in monkeys (plasma, LC-MS-MS); design: species or system Monkey (Cynomolgus); settings: for AUC / Cmax / Tmax / half-life: cynomolgus monkey; for F: calculated using IV AUC of 476 ng · h/mL
Experimental: Test substances (Examples 4 and 71-73) were administered by oral gavage to groups of two monkeys.
Blood samples were taken at various times after administration and submitted to analysis for the parent drug (Example 4 and Example 71) and pro-drug (Examples 72 and 73) using an LC-MS-MS assay. […] Pharmacokinetic parameters derived from the plasma analytical data were determined using Watson LIMS 7.2.003 (Thermo Fisher Scientific, Waltham, Mass.). The results are given in FIG. 2 and Tables 13, 14, and 15.

[2] = Prodrug in vivo pharmacokinetics in dogs (plasma, LC-MS-MS); design: species or system Dog (Beagle); settings: for AUC / Cmax / Tmax / half-life: Beagle, dog
Experimental: Test substances (Examples 4 and 71-73) were administered by oral gavage to groups of two dogs. Example 71 was also administered intravenously.
Blood samples were taken at various times after administration and submitted to analysis for the parent drug (Example 71) and pro-drug (Examples 72 and 73) using an LC-MS-MS assay. Pharmacokinetic parameters derived from the plasma analytical data were determined using Watson LIMS 7.2.003 (Thermo Fisher Scientific, Waltham, Mass.). The results are given in FIG. 1 and Tables 8, 9, 10, and 11.

[3] = biological target: human KAT II (hKAT II) enzyme (Homo sapiens, UniProt Q8N5Z0); assay: KAT II Inhibition Spectra Assay; type: biochemical; settings: Table 6; hKAT II, decrease in OD370, 37° C., 15-20 h; read-out: KATII IC50
Outline: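 hKAT II (15 nM, 3× stock) converts L-kynurenine (3 mM, 3× stock) with α-ketoglutarate and PLP in Tris acetate; 15–20 h at 37 °C. Inhibition of the OD370 decrease read versus DMSO wells across a concentration range gives IC50.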

[4] = plasma, po, 1 mg/kg, Example 72 in dog plasma after oral Example 72 (1 mg/kg active), Dog 1
[5] = plasma, po, 1 mg/kg, Example 72 in dog plasma after oral Example 72 (1 mg/kg active), Dog 2
[6] = plasma, po, 1 mg/kg, Example 72 in dog plasma after oral Example 72 (1 mg/kg active), Mean
[7] = Cynomolgus, plasma, po, 3 mg/kg, Example 71 in monkey plasma after oral Example 71 (3 mg/kg active), Mean
[8] = Cynomolgus, plasma, po, 3 mg/kg, Example 71 in monkey plasma after oral Example 71 (3 mg/kg active), Monkey 1
[9] = Cynomolgus, plasma, po, 3 mg/kg, Example 71 in monkey plasma after oral Example 71 (3 mg/kg active), Monkey 2
[10] = Example 71 in monkey plasma after oral Example 71 (3 mg/kg active), Mean
[11] = Example 71 in monkey plasma after oral Example 71 (3 mg/kg active), Monkey 1
[12] = Example 71 in monkey plasma after oral Example 71 (3 mg/kg active), Monkey 2
[13] = plasma, po, 2 mg/kg, Example 71 in dog plasma after oral Example 71 (2 mg/kg active), Dog 1
[14] = plasma, po, 2 mg/kg, Example 71 in dog plasma after oral Example 71 (2 mg/kg active), Dog 2
[15] = plasma, po, 2 mg/kg, Example 71 in dog plasma after oral Example 71 (2 mg/kg active), Mean

Sequence of human KAT II (hKAT II) enzyme (Q8N5Z0 30-425): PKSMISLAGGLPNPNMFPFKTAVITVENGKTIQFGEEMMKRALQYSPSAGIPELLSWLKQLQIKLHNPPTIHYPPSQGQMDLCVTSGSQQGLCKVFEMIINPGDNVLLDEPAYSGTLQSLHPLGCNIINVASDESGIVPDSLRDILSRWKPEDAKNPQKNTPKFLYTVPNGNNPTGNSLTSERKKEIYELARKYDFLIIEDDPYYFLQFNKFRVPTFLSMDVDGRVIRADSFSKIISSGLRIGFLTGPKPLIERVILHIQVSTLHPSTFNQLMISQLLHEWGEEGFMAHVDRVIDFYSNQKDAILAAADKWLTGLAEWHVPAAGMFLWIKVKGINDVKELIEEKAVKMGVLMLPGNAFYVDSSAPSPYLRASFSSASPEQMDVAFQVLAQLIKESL

With CN(C)C(=O)ON1C(=O)[C@@H](N)Cc2cc(Oc3ccccc3)ccc21 [Example 72, (3S)-3-amino-1-[(dimethylcarbamoyl)oxy]-6-phenoxy-3,4-dihydroquinolin-2(1H)-one] as the compound, how does the “Plasma levels of Example 72” value ([1]; monkeys, oral gavage of Example 72, all time points) read?
The value was “below the limit of quantitation”.

What about the AUC ([2]; plasma, iv, 0.47 mg/kg, exposure of Example 72 in dogs following intravenous administration of Example 72 at 0.47 mg/kg, read-out: AUC) of the same compound?
Its AUC is 497 ng·h/mL.

What about the Cmax [2, 4] of the same compound?
The Cmax was 142 ng/mL.

What about the Tmax [2, 4] of the same compound?
Its Tmax is 30 min.

And the half-life [2, 4]?
The half-life was 139 min.

And the AUC ([2]; plasma, po, 1 mg/kg, Example 72 in dog plasma after oral Example 72 (1 mg/kg active), Dog 1, read-out: AUC)?
The AUC was 402 ng·h/mL.

And the AUC ([2]; plasma, po, 1 mg/kg, Example 72 in dog plasma after oral Example 72 (1 mg/kg active), Dog 1, read-out: AUC Extrap)?
The AUC was 455 ng·h/mL.

And the Cmax [2, 5]?
Its Cmax is 248 ng/mL.

What about the Tmax [2, 5] of the same compound?
Its Tmax is 60 min.

What about the half-life [2, 5] of the same compound?
The half-life was 116 min.

And the AUC ([2]; plasma, po, 1 mg/kg, Example 72 in dog plasma after oral Example 72 (1 mg/kg active), Dog 2, read-out: AUC)?
Its AUC is 721 ng·h/mL.

What about the AUC ([2]; plasma, po, 1 mg/kg, Example 72 in dog plasma after oral Example 72 (1 mg/kg active), Dog 2, read-out: AUC Extrap) of the same compound?
The AUC was 790 ng·h/mL.

And the Cmax [2, 6]?
The Cmax was 195 ng/mL.

What about the Tmax [2, 6] of the same compound?
The Tmax was 45 min.

What about the half-life [2, 6] of the same compound?
Its half-life is 128 min.

What about the AUC ([2]; plasma, po, 1 mg/kg, Example 72 in dog plasma after oral Example 72 (1 mg/kg active), Mean, read-out: AUC) of the same compound?
Its AUC is 562 ng·h/mL.

And the AUC ([2]; plasma, po, 1 mg/kg, Example 72 in dog plasma after oral Example 72 (1 mg/kg active), Mean, read-out: AUC Extrap)?
The AUC was 623 ng·h/mL.

And the “% AUC Extrap” value ([2]; Example 72 in dog plasma after oral Example 72 (1 mg/kg active), Dog 1)?
Its value is 11.7%.

And the “% AUC Extrap” value ([2]; Example 72 in dog plasma after oral Example 72 (1 mg/kg active), Dog 2)?
Its value is 8.77%.

And the “% AUC Extrap” value ([2]; Example 72 in dog plasma after oral Example 72 (1 mg/kg active), Mean)?
The value was 10.2%.

And the F ([2]; Example 72 in dog plasma after oral Example 72 (1 mg/kg active), calculated using IV AUC of 497 ng · h/mL, Dog 1)?
The F was 38%.

And the F ([2]; Example 72 in dog plasma after oral Example 72 (1 mg/kg active), calculated using IV AUC of 497 ng · h/mL, Dog 2)?
The F was 54%.

What about the F ([2]; Example 72 in dog plasma after oral Example 72 (1 mg/kg active), calculated using IV AUC of 497 ng · h/mL, Mean) of the same compound?
Its F is 46%.

Which AUC ([1]; Cynomolgus, in vivo, plasma exposure of Example 71 in monkeys following intravenous administration of Example 71 at 0.5 mg/kg, read-out: AUC) does the source give for Cl.N[C@H]1Cc2cc(Oc3ccccc3)ccc2N(O)C1=O [Example 71, (3S)-3-amino-1-hydroxy-6-phenoxy-3,4-dihydroquinolin-2(1H)-one, hydrochloride salt] here?
The AUC was 476 ng·h/mL.

And the Cmax [1, 7]?
The Cmax was 53.4 ng/mL.

And the Tmax [1, 7]?
Its Tmax is 22.8 min.

And the half-life [1, 7]?
Its half-life is 52.9 min.

What about the Cmax [1, 8] of the same compound?
The Cmax was 44 ng/mL.

What about the Tmax [1, 8] of the same compound?
Its Tmax is 15 min.

What about the half-life [1, 8] of the same compound?
The half-life was 62.4 min.

And the Cmax [1, 9]?
The Cmax was 62.8 ng/mL.

And the Tmax [1, 9]?
Its Tmax is 30 min.

What about the half-life [1, 9] of the same compound?
Its half-life is 43.4 min.

What about the “% AUC Extrap” value [1, 10] of the same compound?
Its value is 1.28%.

And the “% AUC Extrap” value [1, 11]?
The value was 2.19%.

What about the “% AUC Extrap” value [1, 12] of the same compound?
The value was 0.366%.

What about the F [1, 10] of the same compound?
The F was 3.2%.

And the F [1, 11]?
Its F is 2.2%.

What about the F [1, 12] of the same compound?
Its F is 4.2%.

And the AUC ([1]; plasma, po, 3 mg/kg, Example 71 in monkey plasma after oral Example 71 (3 mg/kg active), Mean, read-out: AUC)?
Its AUC is 94.8 ng·h/mL.

What about the AUC ([1]; plasma, po, 3 mg/kg, Example 71 in monkey plasma after oral Example 71 (3 mg/kg active), Mean, read-out: AUC Extrap) of the same compound?
The AUC was 95.4 ng·h/mL.

What about the AUC ([1]; plasma, po, 3 mg/kg, Example 71 in monkey plasma after oral Example 71 (3 mg/kg active), Monkey 1, read-out: AUC) of the same compound?
The AUC was 55.5 ng·h/mL.

And the AUC ([1]; plasma, po, 3 mg/kg, Example 71 in monkey plasma after oral Example 71 (3 mg/kg active), Monkey 1, read-out: AUC Extrap)?
Its AUC is 56.7 ng·h/mL.

What about the AUC ([1]; plasma, po, 3 mg/kg, Example 71 in monkey plasma after oral Example 71 (3 mg/kg active), Monkey 2, read-out: AUC) of the same compound?
Its AUC is 134 ng·h/mL.

And the AUC ([1]; plasma, po, 3 mg/kg, Example 71 in monkey plasma after oral Example 71 (3 mg/kg active), Monkey 2, read-out: AUC Extrap)?
Its AUC is 134 ng·h/mL.

What about the AUC ([2]; in vivo, exposure of Example 71 in dogs following intravenous administration of Example 71 at 0.5 mg/kg, read-out: AUC) of the same compound?
Its AUC is 247 ng·h/mL.

What about the Cmax [2, 13] of the same compound?
The Cmax was 25.4 ng/mL.

What about the Tmax [2, 13] of the same compound?
Its Tmax is 15 min.

And the half-life [2, 13]?
The half-life was 26.3 min.

What about the AUC ([2]; plasma, po, 2 mg/kg, Example 71 in dog plasma after oral Example 71 (2 mg/kg active), Dog 1, read-out: AUC) of the same compound?
The AUC was 10.3 ng·h/mL.

What about the AUC ([2]; plasma, po, 2 mg/kg, Example 71 in dog plasma after oral Example 71 (2 mg/kg active), Dog 1, read-out: AUC Extrap) of the same compound?
Its AUC is 10.7 ng·h/mL.

What about the Cmax [2, 14] of the same compound?
Its Cmax is 15.4 ng/mL.

And the Tmax [2, 14]?
The Tmax was 15 min.

And the half-life [2, 14]?
Its half-life is 17.9 min.

What about the AUC ([2]; plasma, po, 2 mg/kg, Example 71 in dog plasma after oral Example 71 (2 mg/kg active), Dog 2, read-out: AUC) of the same compound?
Its AUC is 12.2 ng·h/mL.

And the AUC ([2]; plasma, po, 2 mg/kg, Example 71 in dog plasma after oral Example 71 (2 mg/kg active), Dog 2, read-out: AUC Extrap)?
The AUC was 12.5 ng·h/mL.

And the Cmax [2, 15]?
Its Cmax is 20.4 ng/mL.

What about the Tmax [2, 15] of the same compound?
The Tmax was 15 min.

And the half-life [2, 15]?
Its half-life is 22.1 min.

And the AUC ([2]; plasma, po, 2 mg/kg, Example 71 in dog plasma after oral Example 71 (2 mg/kg active), Mean, read-out: AUC)?
The AUC was 11.3 ng·h/mL.

And the AUC ([2]; plasma, po, 2 mg/kg, Example 71 in dog plasma after oral Example 71 (2 mg/kg active), Mean, read-out: AUC Extrap)?
Its AUC is 11.6 ng·h/mL.

And the “% AUC Extrap” value ([2]; Example 71 in dog plasma after oral Example 71 (2 mg/kg active), Dog 1)?
Its value is 3.44%.

And the “% AUC Extrap” value ([2]; Example 71 in dog plasma after oral Example 71 (2 mg/kg active), Dog 2)?
Its value is 2.35%.

What about the “% AUC Extrap” value ([2]; Example 71 in dog plasma after oral Example 71 (2 mg/kg active), Mean) of the same compound?
The value was 2.9%.

And the F ([2]; Example 71 in dog plasma after oral Example 71 (2 mg/kg active), calculated using IV AUC of 247 ng · h/mL, Dog 1)?
Its F is 1.0%.

What about the F ([2]; Example 71 in dog plasma after oral Example 71 (2 mg/kg active), calculated using IV AUC of 247 ng · h/mL, Dog 2) of the same compound?
The F was 1.3%.

And the F ([2]; Example 71 in dog plasma after oral Example 71 (2 mg/kg active), calculated using IV AUC of 247 ng · h/mL, Mean)?
The F was 1.2%.

What about the IC50 [3] of the same compound?
Its IC50 is 22.7 nM.
